# Results reported in ChEMBL document CHEMBL1158768, “Isolation and structure elucidation of the new fungal metabolite (-)-xylariamide A” (J Nat Prod, 2005).
# How the values were obtained:
# Format in all cases: organism-based
# Conditions in all cases: in vivo
# Artemia salina [1] = assay: Toxicity in Artemia salina
# Artemia salina [2] = assay: Toxicity in Artemia salina at 20 ug/mL
# Artemia salina [3] = assay: Toxicity in Artemia salina at 200 ug/mL
SMILES,Activity (Artemia salina [1]),Activity (Artemia salina [2]) [%],Activity (Artemia salina [3]) [%]
COC(=O)/C=C/C(=O)N[C@@H](Cc1ccc(O)c(Cl)c1)C(=O)O [(+)-XYLARIAMIDE A],Non-toxic,–,–
COC(=O)/C=C/C(=O)N[C@H](Cc1ccc(O)c(Cl)c1)C(=O)O [(-)-XYLARIAMIDE A],–,0,71
